Source: patent US6235493A, “Amino acid substituted-cresyl violet, synthetic fluorogenic substrates for the analysis of agents in individual in vivo cells or tissue” (priority 1998, dated 2001)
Several values for one entry are separate records, joined by “and”; a condition that tells them apart may be missing. Identical values can stand only once. Entries after “also recorded” stand apart in the source; their conditions may differ. Starred links: 1 amine or outer side, 2 acyl side, 3 side chain; linkers in the order of their positions; H or OH if unused. Non-standard residues stand in square brackets, D forms with d. Residues, ends and D or L forms follow the SMILES beside them. *: point of attachment. hPhe = N[C@@H](CCc1ccccc1)C(=O)O; Morpholide = C1CN(*)CCO1; CO = O=C([*:1])[*:2]; CH2F = FC*

What was measured:
[1] = target: T1, cathepsin B (Rattus norvegicus, UniProt P00787); assay: Cathepsin B activity in living CC531 colon cancer cells (CSLM, (Z-Arg)^2 -cresyl violet); assay type: cell-based
T1 sequence (P00787 80-333): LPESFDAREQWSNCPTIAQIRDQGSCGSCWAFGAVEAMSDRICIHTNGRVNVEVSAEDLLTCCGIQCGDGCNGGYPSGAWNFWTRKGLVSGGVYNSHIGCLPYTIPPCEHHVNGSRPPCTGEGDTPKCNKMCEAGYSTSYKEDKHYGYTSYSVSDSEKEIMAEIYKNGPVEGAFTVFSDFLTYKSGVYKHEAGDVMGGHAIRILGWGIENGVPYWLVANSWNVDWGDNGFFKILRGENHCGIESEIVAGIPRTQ
Description: An established rat colon carcinoma cell line, CC531, was used for all experiments. The parental cell line was obtained from a 1,2-dimethylhydrazine-induced moderately differentiated and weakly immunogenic colon adenocarcinoma in WAG-Rij rats (44). Cells were cultured in vitro at 37° C. as monolayers in Dulbecco's modification of Eagle's medium (ICN Biomedicals, Irvine, Ayrshire, UK) supplemented with 10% (w/v) fetal bovine serum, 2 mM glutamine, 100 IU penicillin/ml and 100 μg streptomycin/ml. Cells were washed in PBS and, after detachment by scraping and centrifugation (250 g, room temperature, 10 min), a single cell suspension at a final concentration of 1×10^6 cancer cells in 50 μl of PBS was obtained with a viability of at least 95% (45,46). Cell suspension were either used for cytochemical purposes or for in vivo administration to induce metastases in the liver.
Cathepsin B activity was detected in real-time in living CC531 cells and freshly prepared living rat hepatocytes after isolation by collagenase perfusion of livers of male mature rats after 24 h of starvation (47). At time point zero, cell preparations were diluted 20-fold in PBS containing either 10 μM (Z-Arg)^2 -cresyl violet (Enzyme Systems Products, Dublin, Calif.) as fluorogenic substrate for cathepsin B (48) or 10 μM substrate and 20 μM FMK (Protek, Dublin, Calif.), as selective cathepsin B inhibitor (40,41). The fluorogenic substrate is not fluorescent but after proteolytic cleavage, liberated cresyl violet is fluorescent. Synthesis of the substrate is described elsewhere in Ref. 48. The substrate was dissolved first in dimethyl formamide (final concentration in the incubation medium was 1% (v/v)). An aliquot of 100 μl of the cell suspensions was brought into a well formed by a stainless steel ring attached to a glass slide (49). Images of cells were captured in real-time with a Leica CSLM fitted to a Leica Fluovert inverted microscopic equipped with a PL APO oil-immersion objective (×63, NA 1.40). Excitation was performed at a wavelength of 560 nm and fluorescence was captured at greater than 580 nm. Excitation with the use of green light is harmless to living cells. The pinhole aperture was set at 100 giving an optimized image (50). With fixed pinhole, filter combination and a laser power setting adjusted to give minimal fading, the photomultiplier gain and photometric offset were optimized. Cells were subjected to optical serial sectioning after each 60 s of incubation up to 300 s. Images in the X-Y plane were recorded with intervals of 0.5 μm in the Z direction. For analysis, each optical section was averaged eight times. Images were recorded in a 512×512 pixel format. The size of each pixel represented 0.015 μm^2 in the object. […]

[2] = target: T1, cathepsin B; assay: Cathepsin B activity in homogenates of liver lobes of rats after oral FMK treatment; assay type: in vivo; conditions: 20 mg FMK per kg body weight daily, 14 days, all four lobes
Description: Sixteen rats were treated orally with 20 mg FMK per kg body weight dissolved in PBS and 5% dimethylformamide daily for 14 days starting one week before administration of the CC531 cells and continuing until sacrifice. Oral administration was performed directly into the stomach with a plastic tube attached to a syringe. Dosage and type of treatment were selected on the basis of previous experiments in which rats were treated with FMK-related inhibitors of cathepsins (34,40,53). The other 16 animals were treated similarly with PBS and dimethylformamide only. The LD50 of this type of FMK is at least 20-fold higher than the dosages used in the present experiment (40,53).
Cathepsin B activity was determined in homogenates obtained from each individual liver lobe of all rats according to Cox and Eley (56) with the use of the fluorogenic substrate CBZ-Ala-Arg-Arg-7-amino-4-trifluoromethylcoumarin (Enzyme Systems Products, Dublin, Calif.).
Whether or not the two weeks of oral treatment with the inhibitor had the same effect on cathepsin B activity in all liver lobes was determined.

## O=C(CF)[C@H](CCc1ccccc1)NC(=O)[C@H](Cc1ccccc1)NC(=O)N1CCOCC1 [FMK, Mu-Phe-homoPhe-fluoro-methylketone] ({Morpholide-CO}-Phe-[hPhe]-CH2F)
[1]; CC531 cells, 20 μM FMK
  inhibition of intracellular cathepsin B activity: not intracellular cathepsin B activity; also recorded: Activity was present intracellularly
[1]; CC531 cells, 20 μM FMK, 10 μM (Z-Arg)^2 -cresyl violet, 5 min, room temperature
  inhibition of plasma membrane-bound (extracellular) cathepsin B activity: inhibited only extracellular; also recorded: inhibited the plasma membrane-bound activity completely; also recorded: Plasma membrane-bound activity was inhibited
[1]; inferred from lack of inhibition of intracellular activity
  uptake by living cells: had not been taken up by the living cells
[2]
  inhibition of cathepsin B activity in liver lobes: ~50% and 51±14%
